This is an account of results in patent US6399629B1, “Efflux pump inhibitors” (priority 1998, dated 2002).

This experiment concerns Pseudomonas aeruginosa PAM1001. Briefly: checkerboard assay (broth microdilution): levofloxacin MIC in presence of efflux pump inhibitor. It is filed as cell-based. On the procedure: For compounds labeled with the prefix ‘M’, potentiation effect is observed by the reduction of the minimum inhibitory concentration of levofloxacin in the presence of the experimental efflux pump inhibitor. The activity of efflux pump inhibitors (EPI) in combination with fluoroquinolones, such as levofloxacin, is assessed by the checkerboard assay (Antimicrobial Combinations. In Antibiotics in Laboratory Medicine, Ed. Victor Lorian, M.D., Fourth edition, 1996, pp 333-338) using broth microdilution method performed as recommended by the National Committee for Clinical Laboratory Standards (1997). Methods for Dilution of Antimicrobial Susceptibility Tests for Bacteria That Grow Aerobically—Fourth Edition; Approved Standard. NCCLS Document M7-A4, Vol 17 No.2). The test organism used is Pseudomonas aeruginosa PAM1001. […] The compounds tabulated below are representative of the described invention.
In these assays, multiple dilutions of two drugs, namely the EPI and levofloxacin, are being tested, alone and in combination, at concentrations equal to, above and below their respective minimal inhibitory concentrations (MICs). In the case of EPI, most of these compounds are devoid of intrinsic antimicrobial activity and are tested up to the maximum concentration of 40 μg/mL. The MIC of levofloxacin against P. aeruginosa PAM1001 is 4 μg/mL.
The EPI tested are readily soluble in water and stock solutions are prepared at a final concentration of 2 mg/mL. Stock solutions are further diluted, according to the needs of a particular assay, in Mueller Hinton Broth (MHB). Stock solution can be stored at −80° C. Quinolones are solubilized according to the instructions of the manufacturers, at a concentration of 1 mg/mL. They are then further diluted in MHB. Stock solution can be stored at −80° C.
The checkerboard assay is performed in microtiter plates. Levofloxacin is diluted in the x axis, each column containing a single concentration of levofloxacin. The EPI is diluted in the y axis, each row containing an equal concentration of EPI. The result of these manipulations is that each well of the microtiter plate contains a unique combination of concentrations of the two agents. Each EPI are tested independently.
The assay is performed in MHB with a final bacterial inoculum of 5×10^5 CFU/mL (from an early-log phase culture). Microtiter plates are incubated during 20 h at 35° C. and are read using a microtiter plate reader (Molecular Devices) at 650 nm as well as visual observation using a microtiterplate reading mirror.

As for `NCCC(=O)N[C@H]1CN[C@H](C(=O)N[C@H](CCc2ccccc2)C(=O)Nc2cnc3ccccc3c2)C1` [Compound M6, (2S,4R)-4-[3-(Aminopropionamido])-N-[(1R)-3-phenyl-1-(3-quinolylcarbamoyl)propyl]-2-pyrrolidinecarboxamide], the “Levofloxacin MIC Against P. aerugiuosa PAM1001 in Presence of Efflux Pump Inhibitor (EPI), Minimum Inhibitory Concentration” value (EPI Conc. 0 μg/mL) stood at 4 µg/mL; the “Levofloxacin MIC Against P. aerugiuosa PAM1001 in Presence of Efflux Pump Inhibitor (EPI), Minimum Inhibitory Concentration” value (EPI Conc. 0.625 μg/mL) came to 4 µg/mL; the “Levofloxacin MIC Against P. aerugiuosa PAM1001 in Presence of Efflux Pump Inhibitor (EPI), Minimum Inhibitory Concentration” value (EPI Conc. 1.25 μg/mL) came out at 4 µg/mL; the “Levofloxacin MIC Against P. aerugiuosa PAM1001 in Presence of Efflux Pump Inhibitor (EPI), Minimum Inhibitory Concentration” value (EPI Conc. 2.5 μg/mL) stood at 4 µg/mL; the “Levofloxacin MIC Against P. aerugiuosa PAM1001 in Presence of Efflux Pump Inhibitor (EPI), Minimum Inhibitory Concentration” value (EPI Conc. 5 μg/ mL) was found to be 4 µg/mL; the “Levofloxacin MIC Against P. aerugiuosa PAM1001 in Presence of Efflux Pump Inhibitor (EPI), Minimum Inhibitory Concentration” value (EPI Conc. 10 μg/mL) is 2 µg/mL. For the same compound, the “Levofloxacin MIC Against P. aerugiuosa PAM1001 in Presence of Efflux Pump Inhibitor (EPI), Minimum Inhibitory Concentration” value (EPI Conc. 20 μg/mL) came out at 0.06 µg/mL and the “Levofloxacin MIC Against P. aerugiuosa PAM1001 in Presence of Efflux Pump Inhibitor (EPI), Minimum Inhibitory Concentration” value (EPI Conc. 40 μg/mL) was found to be 0.015 µg/mL.
On to `N[C@H]1CN[C@H](C(=O)N[C@H](CCc2ccccc2)C(=O)Nc2cnc3ccccc3c2)C1` [Compound M7], for which the “Levofloxacin MIC Against P. aerugiuosa PAM1001 in Presence of Efflux Pump Inhibitor (EPI), Minimum Inhibitory Concentration” value (EPI Conc. 0 μg/mL) was 4 µg/mL; the “Levofloxacin MIC Against P. aerugiuosa PAM1001 in Presence of Efflux Pump Inhibitor (EPI), Minimum Inhibitory Concentration” value (EPI Conc. 0.625 μg/mL) came to 4 µg/mL; the “Levofloxacin MIC Against P. aerugiuosa PAM1001 in Presence of Efflux Pump Inhibitor (EPI), Minimum Inhibitory Concentration” value (EPI Conc. 1.25 μg/mL) amounted to 4 µg/mL; the “Levofloxacin MIC Against P. aerugiuosa PAM1001 in Presence of Efflux Pump Inhibitor (EPI), Minimum Inhibitory Concentration” value (EPI Conc. 2.5 μg/mL) came out at 4 µg/mL; the “Levofloxacin MIC Against P. aerugiuosa PAM1001 in Presence of Efflux Pump Inhibitor (EPI), Minimum Inhibitory Concentration” value (EPI Conc. 5 μg/ mL) was determined as 4 µg/mL; the “Levofloxacin MIC Against P. aerugiuosa PAM1001 in Presence of Efflux Pump Inhibitor (EPI), Minimum Inhibitory Concentration” value (EPI Conc. 10 μg/mL) stood at 4 µg/mL. Further, the “Levofloxacin MIC Against P. aerugiuosa PAM1001 in Presence of Efflux Pump Inhibitor (EPI), Minimum Inhibitory Concentration” value was found to be 4 µg/mL (EPI Conc. 20 μg/mL) and 0.06 µg/mL (EPI Conc. 40 μg/mL).
In the case of `CC(C)C[C@@H](NC(=O)[C@@H]1C[C@@H](NC(=O)CN)CN1)C(=O)Nc1cnc2ccccc2c1` [Compound M8], the “Levofloxacin MIC Against P. aerugiuosa PAM1001 in Presence of Efflux Pump Inhibitor (EPI), Minimum Inhibitory Concentration” value runs as follows: (EPI Conc. 0 μg/mL) 2 µg/mL; (EPI Conc. 0.625 μg/mL) 2 µg/mL; (EPI Conc. 1.25 μg/mL) 2 µg/mL; (EPI Conc. 2.5 μg/mL) 2 µg/mL; (EPI Conc. 5 μg/ mL) 2 µg/mL; (EPI Conc. 10 μg/mL) 2 µg/mL. The “Levofloxacin MIC Against P. aerugiuosa PAM1001 in Presence of Efflux Pump Inhibitor (EPI), Minimum Inhibitory Concentration” value was 1 µg/mL (EPI Conc. 20 μg/mL) and 0.25 µg/mL (EPI Conc. 40 μg/mL).
Turning to `CN(C(=O)CN)[C@@H]1CN[C@H](C(=O)N[C@H](CCc2ccccc2)C(=O)Nc2cnc3ccccc3c2)C1` [Compound M9], the “Levofloxacin MIC Against P. aerugiuosa PAM1001 in Presence of Efflux Pump Inhibitor (EPI), Minimum Inhibitory Concentration” value turned out to be 4 µg/mL (EPI Conc. 0 μg/mL); 4 µg/mL (EPI Conc. 0.625 μg/mL); 4 µg/mL (EPI Conc. 1.25 μg/mL); 4 µg/mL (EPI Conc. 2.5 μg/mL); 4 µg/mL (EPI Conc. 5 μg/ mL); 4 µg/mL (EPI Conc. 10 μg/mL). The “Levofloxacin MIC Against P. aerugiuosa PAM1001 in Presence of Efflux Pump Inhibitor (EPI), Minimum Inhibitory Concentration” value runs as follows: (EPI Conc. 20 μg/mL) 2 µg/mL; (EPI Conc. 40 μg/mL) 0.06 µg/mL.
Take `COc1cc(C)c2ncc(NC(=O)[C@@H](CC(C)C)NC(=O)[C@@H]3C[C@@H](NC(=O)CN)CN3)cc2c1` [Compound M10, (2S,4R)-4-(2-Aminoacetamido)-N-[(1R)-3-3-methyl-1-(6-methoxy-8-methyl-3-quinolylcarbamoyl)butyl]-2-pyrrolidinecarboxamide]: the “Levofloxacin MIC Against P. aerugiuosa PAM1001 in Presence of Efflux Pump Inhibitor (EPI), Minimum Inhibitory Concentration” value (EPI Conc. 0 μg/mL) was 4 µg/mL; the “Levofloxacin MIC Against P. aerugiuosa PAM1001 in Presence of Efflux Pump Inhibitor (EPI), Minimum Inhibitory Concentration” value (EPI Conc. 0.625 μg/mL) is 4 µg/mL; the “Levofloxacin MIC Against P. aerugiuosa PAM1001 in Presence of Efflux Pump Inhibitor (EPI), Minimum Inhibitory Concentration” value (EPI Conc. 1.25 μg/mL) was 4 µg/mL; the “Levofloxacin MIC Against P. aerugiuosa PAM1001 in Presence of Efflux Pump Inhibitor (EPI), Minimum Inhibitory Concentration” value (EPI Conc. 2.5 μg/mL) was 4 µg/mL; the “Levofloxacin MIC Against P. aerugiuosa PAM1001 in Presence of Efflux Pump Inhibitor (EPI), Minimum Inhibitory Concentration” value (EPI Conc. 5 μg/ mL) was 4 µg/mL; the “Levofloxacin MIC Against P. aerugiuosa PAM1001 in Presence of Efflux Pump Inhibitor (EPI), Minimum Inhibitory Concentration” value (EPI Conc. 10 μg/mL) was determined as 4 µg/mL. The “Levofloxacin MIC Against P. aerugiuosa PAM1001 in Presence of Efflux Pump Inhibitor (EPI), Minimum Inhibitory Concentration” value is 1 µg/mL (EPI Conc. 20 μg/mL) and 0.06 µg/mL (EPI Conc. 40 μg/mL).
For `CC(C)CC(NC(=O)C1CC(CN)CN1)C(=O)Nc1cnc2ccccc2c1` [Compound M13, (2R,4R)-4-(Aminomethyl)-N-[(1R)-3-methyl-1-quinolylcarbanioyl)bulyl]-2-pyrrolidinecarboxamide], the “Levofloxacin MIC Against P. aerugiuosa PAM1001 in Presence of Efflux Pump Inhibitor (EPI), Minimum Inhibitory Concentration” value reads like this: (EPI Conc. 0 μg/mL) 4 µg/mL; (EPI Conc. 0.625 μg/mL) 4 µg/mL; (EPI Conc. 1.25 μg/mL) 4 µg/mL; (EPI Conc. 2.5 μg/mL) 2 µg/mL; (EPI Conc. 5 μg/ mL) 1 µg/mL; (EPI Conc. 10 μg/mL) 0.06 µg/mL. Further, the “Levofloxacin MIC Against P. aerugiuosa PAM1001 in Presence of Efflux Pump Inhibitor (EPI), Minimum Inhibitory Concentration” value amounted to 0.06 µg/mL (EPI Conc. 20 μg/mL) and 0.06 µg/mL (EPI Conc. 40 μg/mL).
Turning to `CCc1ccc2ncc(NC(=O)[C@@H](CCc3ccccc3)NC(=O)[C@H]3C[C@H](CN)CN3)cc2c1` [Compound M14, (2R,4R)-4-(Aminomethyl)-N-[(1R)-3-phenyl-1-(6-ethyl-3-quiolylcarbamoyl)propyl]-2-pyrrolidinecarboxamide], the “Levofloxacin MIC Against P. aerugiuosa PAM1001 in Presence of Efflux Pump Inhibitor (EPI), Minimum Inhibitory Concentration” value reads like this: (EPI Conc. 0 μg/mL) 4 µg/mL; (EPI Conc. 0.625 μg/mL) 4 µg/mL; (EPI Conc. 1.25 μg/mL) 4 µg/mL; (EPI Conc. 2.5 μg/mL) 2 µg/mL; (EPI Conc. 5 μg/ mL) 0.03 µg/mL; (EPI Conc. 10 μg/mL) 0.03 µg/mL. Also, the “Levofloxacin MIC Against P. aerugiuosa PAM1001 in Presence of Efflux Pump Inhibitor (EPI), Minimum Inhibitory Concentration” value (EPI Conc. 20 μg/mL) was 0.03 µg/mL.
